# From article PMC6364417, “Kinase inhibitor library screening identifies synergistic drug combinations effective in sensitive and resistant melanoma cells” (Journal of Experimental & Clinical Cancer Research : CR, 2019)
# Legend:
# Assay in all cases: Kinase inhibitor library screening, PrestoBlue cell viability, 1 or 10 μM, 72 h
# [1] = tested on: A375-GP cells (Dabrafenib-resistant)
# Procedure: (§1) After 72 h of treatment, cell viability was assessed using the PrestoBlue Cell Viability Reagent (ThermoFisher Scientific). Measurements were performed with the CLARIOstar Monochromator microplate reader (BMG Labtech).
# (§2) Kinase inhibitor library screening. […] Each cell line was treated in its sensitive form (parental), and also as 2 resistant derivatives, which were made resistant to either Vemurafenib (XP) or Dabrafenib (GP). Drugs were added at 2 different concentrations, 1 and 10 μM, for 72 h and cell viability was assessed using the PrestoBlue Cell Viability assay. Results are depicted as % viability compared to untreated cells. Each cell line was analyzed at least in duplicate. […] (XLSX 95 kb)
# A375 cells (parental) = tested on: A375 cells (parental)
# Procedure: as §1, §2
# [2] = tested on: A375-XP cells (Vemurafenib-resistant)
# Procedure: as §1, §2
# [3] = tested on: IGR37-GP cells (Dabrafenib-resistant)
# Procedure: as §1, §2
# [4] = tested on: 501Mel-GP cells (Dabrafenib-resistant); details: 72 h
# Procedure: as §1, §2
# [5] = tested on: 501Mel-XP cells (Vemurafenib-resistant); details: 72 h
# Procedure: as §1, §2
# IGR37 cells (parental) = tested on: IGR37 cells (parental)
# Procedure: as §1, §2
# 501Mel cells (parental) = details: 72 h
# Procedure: as §1, §2
# [6] = tested on: IGR37-XP cells (Vemurafenib-resistant)
# Procedure: as §1, §2
compound,measurement,setting,value
Cc1nc(NC(=O)N2CCC[C@H]2C(N)=O)sc1-c1ccnc(C(C)(C)C(F)(F)F)c1 [BYL719],"Cell viability in kinase inhibitor library screening, A375 GP, 1μΜ","[1]; A375 GP, 1μΜ, 72 h",86.9
same,"Cell viability in kinase inhibitor library screening, A375 GP, 10μΜ","[1]; A375 GP, 10μΜ, 72 h",52.5
same,"Cell viability in kinase inhibitor library screening, A375 Parental, 10μΜ","A375 cells (parental); A375 Parental, 10μΜ, 72 h",60.2
same,"Cell viability in kinase inhibitor library screening, A375 Parental, 1μΜ","A375 cells (parental); A375 Parental, 1μΜ, 72 h",93.2
same,"Cell viability in kinase inhibitor library screening, A375 XP, 1μΜ","[2]; A375 XP, 1μΜ, 72 h",93.5
same,"Cell viability in kinase inhibitor library screening, A375 XP, 10μΜ","[2]; A375 XP, 10μΜ, 72 h",62.9
same,"Cell viability in kinase inhibitor library screening, IGR37 GP, 10μΜ","[3]; IGR37 GP, 10μΜ, 72 h",62.1%
same,"Cell viability in kinase inhibitor library screening, IGR37 GP, 1μΜ","[3]; IGR37 GP, 1μΜ, 72 h, in %",90.5
same,"Cell viability in kinase inhibitor library screening, 501Mel GP, 10μΜ","[4]; 501Mel GP, 10μΜ, in %",62.2
same,"Cell viability in kinase inhibitor library screening, 501Mel XP, 1μΜ","[5]; 501Mel XP, 1μΜ, in %",90.3
same,"Cell viability in kinase inhibitor library screening, 501Mel XP, 10μΜ","[5]; 501Mel XP, 10μΜ, in %",56.3
same,"Cell viability in kinase inhibitor library screening, IGR37 Parental, 1μΜ","IGR37 cells (parental); IGR37 Parental, 1μΜ, 72 h, in %",99.1
same,"Cell viability in kinase inhibitor library screening, IGR37 Parental, 10μΜ","IGR37 cells (parental); IGR37 Parental, 10μΜ, 72 h, in %",77.8
same,"Cell viability in kinase inhibitor library screening, 501Mel Parental, 1μΜ","501Mel cells (parental); 501Mel Parental, 1μΜ, in %",99.0
same,"Cell viability in kinase inhibitor library screening, 501Mel Parental, 10μΜ","501Mel cells (parental); 501Mel Parental, 10μΜ, in %",90.7
same,"Cell viability in kinase inhibitor library screening, IGR37 XP, 10μΜ","[6]; IGR37 XP, 10μΜ, 72 h",20.2%
same,"Cell viability in kinase inhibitor library screening, IGR37 XP, 1μΜ","[6]; IGR37 XP, 1μΜ, 72 h, in %",80.6
CCN(CCO)CCCOc1ccc2c(Nc3cc(CC(=O)Nc4cccc(F)c4)[nH]n3)ncnc2c1 [Barasertib (AZD1152-HQPA)],cell viability (kinase inhibitor library screening),"[1]; A375 GP, 1μΜ, 72 h",57.9%
same,cell viability (kinase inhibitor library screening),"[1]; A375 GP, 10μΜ, 72 h",61.1%
same,cell viability (kinase inhibitor library screening),"A375 cells (parental); A375 Parental, 10μΜ, 72 h",59.0%
same,cell viability (kinase inhibitor library screening),"A375 cells (parental); A375 Parental, 1μΜ, 72 h",59.4%
same,cell viability (kinase inhibitor library screening),"[2]; A375 XP, 1μΜ, 72 h",66.2%
same,cell viability (kinase inhibitor library screening),"[2]; A375 XP, 10μΜ, 72 h",68.8%
same,cell viability (kinase inhibitor library screening),"[3]; IGR37 GP, 1μΜ, 72 h",98.3%
same,cell viability (kinase inhibitor library screening),"[3]; IGR37 GP, 10μΜ, 72 h",91.0%
same,cell viability (kinase inhibitor library screening),"[4]; 501Mel GP, 1μΜ",99.2%
same,cell viability (kinase inhibitor library screening),"[4]; 501Mel GP, 10μΜ",86.2%
same,cell viability (kinase inhibitor library screening),"[5]; 501Mel XP, 1μΜ",90.3%
same,cell viability (kinase inhibitor library screening),"[5]; 501Mel XP, 10μΜ",81.8%
same,cell viability (kinase inhibitor library screening),"IGR37 cells (parental); IGR37 Parental, 1μΜ, 72 h",93.5%
same,cell viability (kinase inhibitor library screening),"IGR37 cells (parental); IGR37 Parental, 10μΜ, 72 h",81.6%
same,cell viability (kinase inhibitor library screening),"501Mel cells (parental); 501Mel Parental, 1μΜ",96.3%
same,cell viability (kinase inhibitor library screening),"501Mel cells (parental); 501Mel Parental, 10μΜ",92.5%
same,cell viability (kinase inhibitor library screening),"[6]; IGR37 XP, 1μΜ, 72 h",98.0%
same,cell viability (kinase inhibitor library screening),"[6]; IGR37 XP, 10μΜ, 72 h",51.5%
CCS(=O)(=O)N1CC(CC#N)(n2cc(-c3ncnc4[nH]ccc34)cn2)C1 [Baricitinib (LY3009104)],viability at 1 µM,"[1]; Homo sapiens, A-375, 72 h, read-out: cell viability, A375 GP, 1μΜ",106%
same,viability at 10 µM,"[1]; Homo sapiens, A-375, 72 h, read-out: cell viability, A375 GP, 10μΜ",88.4%
same,viability at 1 µM,"A375 cells (parental); Homo sapiens, A-375, 72 h, read-out: cell viability, A375 Parental, 1μΜ",103%
same,viability at 10 µM,"A375 cells (parental); Homo sapiens, A-375, 72 h, read-out: cell viability, A375 Parental, 10μΜ",94.8%
same,viability at 1 µM,"[2]; Homo sapiens, A-375, 72 h, read-out: cell viability, A375 XP, 1μΜ",105%
same,viability at 10 µM,"[2]; Homo sapiens, A-375, 72 h, read-out: cell viability, A375 XP, 10μΜ",102%
same,viability at 1 µM,"[3]; Homo sapiens, IGR-37, 72 h, read-out: cell viability, IGR37 GP, 1μΜ",92%
same,viability at 10 µM,"[3]; Homo sapiens, IGR-37, 72 h, read-out: cell viability, IGR37 GP, 10μΜ",91.5%
same,viability at 1 µM,"[4]; Homo sapiens, read-out: cell viability, 501Mel GP, 1μΜ",104%
same,viability at 10 µM,"[4]; Homo sapiens, read-out: cell viability, 501Mel GP, 10μΜ",83.8%
same,viability at 1 µM,"[5]; Homo sapiens, read-out: cell viability, 501Mel XP, 1μΜ",98.5%
same,viability at 10 µM,"[5]; Homo sapiens, read-out: cell viability, 501Mel XP, 10μΜ",74.5%
same,viability at 1 µM,"IGR37 cells (parental); Homo sapiens, IGR-37, 72 h, read-out: cell viability, IGR37 Parental, 1μΜ",99.6%
same,viability at 10 µM,"IGR37 cells (parental); Homo sapiens, IGR-37, 72 h, read-out: cell viability, IGR37 Parental, 10μΜ",98.8%
same,viability at 1 µM,"501Mel cells (parental); Homo sapiens, read-out: cell viability, 501Mel Parental, 1μΜ",95%
same,viability at 10 µM,"501Mel cells (parental); Homo sapiens, read-out: cell viability, 501Mel Parental, 10μΜ",88.9%
same,viability at 1 µM,"[6]; Homo sapiens, IGR-37, 72 h, read-out: cell viability, IGR37 XP, 1μΜ",96.5%
same,viability at 10 µM,"[6]; Homo sapiens, IGR-37, 72 h, read-out: cell viability, IGR37 XP, 10μΜ",75.3%
